What all share (assay type): in vivo, Male Wistar strain rats
For experiment [1], the system named is hypoxemia model animals (acetic acid). The experiment can be described thus: Effect on partial pressure of gases in arterial blood, intravenous, Method B (acetic acid induced hypoxemia). The conditions noted are these: 2.0% acetic acid, intravenous 0.1 mg/kg/min, 10 min, after minus before administration. The method, then: (§1) Example 75: Effect on Partial Pressure Value of Gases in Arterial Blood (Intravenous Injection System)
Male Wistar strain rats (body weight about 300 g) were anesthetized with halothane inhalant, and then 2.0% acetic acid was intratrachealy injected at 0.6 ml/kg to induce a respiratory insufficiency. The animals were intraperitonealy anesthetized with urethane-α-chloralose, and a cannula was inserted into the femoral artery. After the hypoxemic state (PaO2 : 60-70 mmHg) was observed a compound in accordance with the present invention (test substance) was continuously injected into these hypoxemia model animals intravenously (0.1 mg/kg/min, 10 min), and then a partial pressure value of gases (PaO2, PaCO2) in arterial blood was immediately determined.

Experiment [2] concerns hypoxemia state (acetic acid). The experiment in a line: Effect on partial pressure of gases in arterial blood, oral administration (acetic acid induced hypoxemia). Particulars: 2.0% acetic acid, 60 min after administration. The method, then:
Example 76: Effect on Partial Pressure Value of Gases in Arterial Blood (Oral Administration System)
Male Wistar strain rats (body weight about 250 g) fasted overnight were anesthetized with halothane inhalant, and then a cannula was inserted into the femoral artery. After the animals recovered from the anesthesia, they were again anesthetized with halothane inhalant, and then 2.0% acetic acid was intratrachealy injected at 0.8 ml/kg to induce a hypoxemia state. After the hypoxemic state was observed over about 60 min., a compound in accordance with the present invention (test substance) was orally administered to the animals. On 60 min. after the administration, the partial pressure value of gases (PaO2, PaCO2) in arterial blood was determined.

In experiment [3] the test system is hypoxemia model animals (carbon powder). The experiment can be described thus: Effect on partial pressure of gases in arterial blood, intravenous, Method A (carbon powder induced hypoxemia). The conditions noted are these: intravenous 0.1 mg/kg/min, 10 min, after minus before administration. The method, then: as §1
Male Wistar strain rats (body weight about 300 g) were anesthetized intra-peritonealy with urethane, and a cannula was inserted into the respiratory tract and the femoral artery, respectively. A suspension (30-100 μm, 10 mg/ml) of carbon powder in a corn oil was intratrachealy injected to induce a hypoxemia state (PaO2 : 50-60 mmHg). A compound in the present invention was continuously injected into these hypoxemia model animals intravenously (0.1 mg/kg/min, 10 min), and then a partial pressure value of gases (PaO2, PaCO2) in arterial blood was immediately determined.

Take `C=CCNc1nc(NCC=C)c2c(n1)N(C)CCC2` [Compound 121]: in experiment [1], the “PaCO2 Decreasing Activity ΔPaCO2” value was -1.2 mmHg and the “PaO2 Increasing Activity ΔPaO2” value is recorded as “+15.9 mmHg”. For the same molecule, in experiment [2], the “PaCO2 Decreasing Activity ΔPaCO2” value is on record as “+ (-3--6 mmHg)” and the “PaO2 Increasing Activity ΔPaO2” value is “++ (+6-+9 mmHg)”.

Take `C=CCNc1nc(NCCc2ccccc2)c2c(n1)N(CC=C)CCC2` [Compound 171]: in experiment [1], the “PaCO2 Decreasing Activity ΔPaCO2” value was -13.4 mmHg and the “PaO2 Increasing Activity ΔPaO2” value was “+17.4 mmHg”. Besides, in experiment [2], the “PaCO2 Decreasing Activity ΔPaCO2” value is recorded as “± (0--3 mmHg)” and the “PaO2 Increasing Activity ΔPaO2” value was “+ (+3-+6 mmHg)”.

For the molecule `C=CCNc1nc2c(c(N3CCN(C(c4ccc(F)cc4)c4ccc(F)cc4)CC3)n1)CCCN2CC=C` [Compound 159], in experiment [3], the “PaCO2 Decreasing Activity ΔPaCO2” value is recorded as “+0.4 mmHg” and the “PaO2 Increasing Activity ΔPaO2” value is given as “+4.8 mmHg”.

As for `C=CCNc1nc2c(c(N3CCCC3)n1)CCCN2CC=C` [Compound 143], in experiment [1], the “PaCO2 Decreasing Activity ΔPaCO2” value is -0.7 mmHg and the “PaO2 Increasing Activity ΔPaO2” value was “+8.1 mmHg”. For the same molecule, in experiment [2], the “PaCO2 Decreasing Activity ΔPaCO2” value is “± (0--3 mmHg)” and the “PaO2 Increasing Activity ΔPaO2” value is reported as “+ (+3-+6 mmHg)”.

As for `C=CCNc1nc(N(C)Cc2ccccc2)c2c(n1)N(CC=C)CCC2` [Compound 189], in experiment [1], the “PaCO2 Decreasing Activity ΔPaCO2” value was -7.6 mmHg and the “PaO2 Increasing Activity ΔPaO2” value was “+16.0 mmHg”.

Regarding `C=CCNc1nc2c(c(N3CCN(C)CC3)n1)CCCN2CC=C` [Compound 155], in experiment [1], the “PaCO2 Decreasing Activity ΔPaCO2” value is recorded as “+2.6 mmHg” and the “PaO2 Increasing Activity ΔPaO2” value is given as “+6.6 mmHg”. Besides, in experiment [2], the “PaCO2 Decreasing Activity ΔPaCO2” value is listed as “+ (-3--6 mmHg)” and the “PaO2 Increasing Activity ΔPaO2” value is on record as “++ (+6-+9 mmHg)”.

Regarding `C=CCNc1nc2c(c(N3CCc4ccccc4C3)n1)CCCN2CC=C` [Compound 214], in experiment [1], the “PaCO2 Decreasing Activity ΔPaCO2” value is “+2.2 mmHg” and the “PaO2 Increasing Activity ΔPaO2” value is given as “+9.8 mmHg”.

Regarding `C=CCNc1nc(NCC=C)c2c(n1)N(Cc1ccccc1)CCC2` [Compound 233], in experiment [1], the “PaCO2 Decreasing Activity ΔPaCO2” value is listed as -4.0 mmHg and the “PaO2 Increasing Activity ΔPaO2” value is “+8.6 mmHg”.

As for `C=CCNc1nc2c(c(N3CCC(c4ccccc4)CC3)n1)CCCN2CC=C` [Compound 146], in experiment [1], the “PaCO2 Decreasing Activity ΔPaCO2” value is “+2.5 mmHg” and the “PaO2 Increasing Activity ΔPaO2” value is reported as “+6.6 mmHg”.

Take `C=CCNc1nc(SC(C)c2ccccc2)c2c(n1)N(CC=C)CCC2` (stereo not drawn) [Compound 203]: in experiment [1], the “PaCO2 Decreasing Activity ΔPaCO2” value was -2.1 mmHg and the “PaO2 Increasing Activity ΔPaO2” value was “+9.5 mmHg”.

Consider `C=CCNc1nc2c(c(N3CCOCC3)n1)CCCN2CC=C` [Compound 209], for which, in experiment [1], the “PaCO2 Decreasing Activity ΔPaCO2” value is given as -2.4 mmHg and the “PaO2 Increasing Activity ΔPaO2” value is “+7.6 mmHg”. In experiment [2], the “PaCO2 Decreasing Activity ΔPaCO2” value is listed as “+ (-3--6 mmHg)” and the “PaO2 Increasing Activity ΔPaO2” value is recorded as “+ (+3-+6 mmHg)”.

For `C=CCNc1nc(N2CC=CCC2)c2c(n1)N(CC=C)CCC2` [Compound 213], in experiment [1], the “PaCO2 Decreasing Activity ΔPaCO2” value is -2.9 mmHg and the “PaO2 Increasing Activity ΔPaO2” value is given as “+10.3 mmHg”.

For `C=CCNc1nc(N(C)C)c2c(n1)N(CC=C)CCC2` [Compound 184], in experiment [1], the “PaCO2 Decreasing Activity ΔPaCO2” value is listed as -3.2 mmHg and the “PaO2 Increasing Activity ΔPaO2” value is “+10.4 mmHg”.

Regarding `C=CCNc1nc(SCCc2ccccc2)c2c(n1)N(CC=C)CCC2` [Compound 204], in experiment [1], the “PaCO2 Decreasing Activity ΔPaCO2” value was “+2.2 mmHg” and the “PaO2 Increasing Activity ΔPaO2” value is “+15.0 mmHg”.

Turning to `C=C(C)CNc1nc2c(c(N3CCN(C(c4ccc(F)cc4)c4ccc(F)cc4)CC3)n1)CCCN2` [Compound 112], in experiment [3], the “PaCO2 Decreasing Activity ΔPaCO2” value is listed as -2.0 mmHg and the “PaO2 Increasing Activity ΔPaO2” value is reported as “+4.6 mmHg”.

As to `C=CCNc1nc2c(c(N3CCCCCC3)n1)CCCN2CC=C` [Compound 153], in experiment [1], the “PaCO2 Decreasing Activity ΔPaCO2” value is -0.9 mmHg and the “PaO2 Increasing Activity ΔPaO2” value is listed as “+10.0 mmHg”.

Turning to `C=CCNc1nc(NCC=C)c2c(n1)N(CC=C)CCC2` [Compound 168], in experiment [1], the “PaCO2 Decreasing Activity ΔPaCO2” value is reported as -12.2 mmHg and the “PaO2 Increasing Activity ΔPaO2” value was “+14.4 mmHg”.

Take `C=CCNc1nc2c(c(N3CCCCC3)n1)CCCN2CC=C` [Compound 145]: in experiment [1], the “PaCO2 Decreasing Activity ΔPaCO2” value is -0.8 mmHg and the “PaO2 Increasing Activity ΔPaO2” value was “+11.2 mmHg”. For the same molecule, in experiment [2], the “PaCO2 Decreasing Activity ΔPaCO2” value was “± (0--3 mmHg)” and the “PaO2 Increasing Activity ΔPaO2” value is “+ (+3-+6 mmHg)”.

The values above are taken from patent US5378700A, “Fused pyrimidine derivative, process for preparation of same and pharmaceutical preparation comprising same as active ingredient” (Teijin Limited, priority 1989, dated 1995).
